# Measurements published in ChEMBL document CHEMBL1201862, “PubChem BioAssay data set” (2004).
#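 Protocol summary: plate cells (96-well), add compound at 5 concentrations, incubate 48 h, interpolate endpoints linearly. The concentration for 50% growth inhibition is given as GI50.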 Calls of active or inactive are those of the source. Cut-off read from the data, not from the text of the source: active = GI50 up to about 1.1 µM and inactive = higher.
# Assays:
# Experiment in all cases: NCI tumour cell line growth inhibition, 48 h
# T47D = test system: T47D
# HOP-62 = test system: HOP-62
# MOLT-4 = test system: MOLT-4
# HCT-15 = test system: HCT-15
# KM12 = test system: KM12
# 786-0 = test system: 786-0
# SK-MEL-2 = test system: SK-MEL-2
# COLO 205 = test system: COLO 205
# HT-29 = test system: HT-29
# A549 = test system: A549
# SF-295 = test system: SF-295
# HOP-92 = test system: HOP-92
# HCC 2998 = test system: HCC 2998
# U-251 = test system: U-251
# OVCAR-3 = test system: OVCAR-3
# PC-3 = test system: PC-3
# OVCAR-8 = test system: OVCAR-8
# IGROV-1 = test system: IGROV-1
# RXF 393 = test system: RXF 393
# SK-MEL-5 = test system: SK-MEL-5
# CAKI-1 = test system: CAKI-1
# K562 = test system: K562
# SK-OV-3 = test system: SK-OV-3
# SK-MEL-28 = test system: SK-MEL-28
# TK-10 = test system: TK-10
# OVCAR-5 = test system: OVCAR-5
# NCI-H226 = test system: NCI-H226
# MCF7 = test system: MCF7
# SNB-19 = test system: SNB-19
# RPMI-8226 = test system: RPMI-8226
# MDA-MB-231 = test system: MDA-MB-231
# UO-31 = test system: UO-31
# NCI-H23 = test system: NCI-H23
# EKVX = test system: EKVX
# SR = test system: SR
# LOX IMVI = test system: LOX IMVI
# M14 = test system: M14
# SN12C = test system: SN12C
# MDA-MB-435 = test system: MDA-MB-435
# HCT-116 = test system: HCT-116
# NCI/ADR-RES = test system: NCI/ADR-RES
# ACHN = test system: ACHN
# SW-620 = test system: SW-620
# SF-268 = test system: SF-268
# NCI-H460 = test system: NCI-H460
# SF-539 = test system: SF-539
# DU-145 = test system: DU-145
# UACC-257 = test system: UACC-257
# UACC-62 = test system: UACC-62
# A498 = test system: A498
# BT-549 = test system: BT-549
# MDA-N = test system: MDA-N
# SNB-75 = test system: SNB-75
# OVCAR-4 = test system: OVCAR-4
smiles,measurement,setting,value
O=c1[nH]nc(Cn2c3ccc(Br)cc3c3nc4ccccc4nc32)n1C1CCCCC1,GI50,T47D,57.9 µM (inactive)
same,GI50,HOP-62,17.7 µM (inactive)
same,GI50,MOLT-4,< 10 nM (active)
same,GI50,HCT-15,> 100 µM
same,GI50,KM12,54 µM (inactive)
same,GI50,786-0,25.2 µM (inactive)
same,GI50,SK-MEL-2,60.7 µM (inactive)
same,GI50,COLO 205,3.9 µM (inactive)
same,GI50,HT-29,36.1 µM (inactive)
same,GI50,A549,43.6 µM (inactive)
same,GI50,SF-295,32.7 µM (inactive)
same,GI50,HOP-92,46.3 µM (inactive)
same,GI50,HCC 2998,54.6 µM (inactive)
same,GI50,U-251,30.5 µM (inactive)
same,GI50,OVCAR-3,23.3 µM (inactive)
same,GI50,PC-3,16.2 µM (inactive)
same,GI50,OVCAR-8,12.8 µM (inactive)
same,GI50,IGROV-1,> 100 µM (inactive)
same,GI50,RXF 393,23.8 µM (inactive)
same,GI50,SK-MEL-5,36.9 µM (inactive)
same,GI50,CAKI-1,> 100 µM (inactive)
same,GI50,K562,20.7 µM (inactive)
same,GI50,SK-OV-3,87.1 µM (inactive)
same,GI50,SK-MEL-28,19.3 µM (inactive)
same,GI50,TK-10,29.8 µM (inactive)
same,GI50,OVCAR-5,34.2 µM (inactive)
same,GI50,NCI-H226,59.4 µM (inactive)
same,GI50,MCF7,43.7 µM (inactive)
same,GI50,SNB-19,> 100 µM (inactive)
same,GI50,RPMI-8226,21.3 µM (inactive)
same,GI50,MDA-MB-231,> 100 µM (inactive)
same,GI50,UO-31,> 100 µM (inactive)
same,GI50,NCI-H23,12.9 µM (inactive)
same,GI50,EKVX,90.8 µM (inactive)
same,GI50,SR,2.08 µM (inactive)
same,GI50,LOX IMVI,< 10 nM (active)
same,GI50,M14,35.1 µM (inactive)
same,GI50,SN12C,> 100 µM (inactive)
same,GI50,MDA-MB-435,28.1 µM (inactive)
same,GI50,HCT-116,70.1 µM (inactive)
same,GI50,NCI/ADR-RES,> 100 µM (inactive)
same,GI50,ACHN,> 100 µM (inactive)
same,GI50,SW-620,52.7 µM (inactive)
same,GI50,SF-268,40 µM (inactive)
same,GI50,NCI-H460,29.4 µM (inactive)
same,GI50,SF-539,13.3 µM (inactive)
same,GI50,DU-145,32 µM (inactive)
same,GI50,UACC-257,26.2 µM (inactive)
same,GI50,UACC-62,21.5 µM (inactive)
same,GI50,A498,32.3 µM (inactive)
same,GI50,BT-549,42.3 µM (inactive)
same,GI50,MDA-N,75.3 µM (inactive)
same,GI50,SNB-75,> 100 µM (inactive)
same,GI50,OVCAR-4,18.6 µM (inactive)
